# After the bases stand the sugars from the 5' end (letter, count) and the backbone: PS all phosphorothioate, else s phosphorothioate and o phosphodiester by linkage. Methylation of C is not given here. e = 2'-O-(2-methoxyethyl) (MOE); k = constrained ethyl (cEt); d = 2'-deoxy (DNA); m = 2'-O-methyl
# Molecular target: HSD17B13
# Conditions: ASO, HepaRG
Sequence,target mRNA inhibition (1 µM) [%],other results
"GATGGTAAGTCAAATA (sugars k3 d10 k3, PS)",85,target mRNA inhibition (0.02 µM): 22%; target mRNA inhibition (0.078 µM): 34%; target mRNA inhibition (0.313 µM): 47%; target mRNA inhibition (1.25 µM): 74%; target mRNA inhibition (5 µM): 90%
"GATGTAGTGGGAGTCG (sugars k3 d9 k3 e1, PS)",42,–
"GATGTATACATTACCT (sugars k3 d10 k3, PS)",67,–
"GATGTTAGGACCCAGT (sugars k3 d10 k3, PS)",64,–
"GATGTTCATGGCTTTG (sugars k3 d10 k3, PS)",81,target mRNA inhibition (0.02 µM): 0%; target mRNA inhibition (0.078 µM): 5%; target mRNA inhibition (0.313 µM): 75%; target mRNA inhibition (1.25 µM): 68%
"GATGUAGTGGGAGTCG (sugars k3 d1 m1 d8 k3, PS)",35,–
"GATTAAGCAGAATTGT (sugars k3 d1 m1 d8 k3, PS)",28,–
"GATTAAGCAGAATTGT (sugars k3 d10 k3, PS)",37,–
"GATTAAGGCAAAGATC (sugars k3 d10 k3, PS)",25,–
"GATTAATCATGGGACA (sugars k3 d10 k3, PS)",9,–
"GATTAATCTTGATGCT (sugars k3 d10 k3, PS)",26,–
"GATTAGTCTTGATGTA (sugars k3 d10 k3, PS)",65,–
"GATTCGAAACTATTCA (sugars k3 d10 k3, PS)",57,–
"GATTGCACAAACCACA (sugars k3 d10 k3, PS)",73,–
"GATTGGAATGCTACTT (sugars kkdddddddddkekek, PS)",53,–
"GATTTGAAGGTTAGAT (sugars k3 d10 k3, PS)",47,–
"GATTTTTGGTGAACCC (sugars k3 d10 k3, PS)",30,–
"GCAAATGTAAGAAGCC (sugars k3 d10 k3, PS)",4,–
"GCAAGCCAACAGAGAG (sugars k3 d9 k3 e1, PS)",38,–
"GCAAGCCAACAGAGAG (sugars k3 d10 k3, PS)",52,–
"GCACAAGCACACTGTA (sugars k3 d10 k3, PS)",7,–
"GCACCCCATGGATCTA (sugars k3 d10 k3, PS)",35,–
"GCACCGTTTTGGGCTA (sugars k3 d9 k3 e1, PS)",45,–

Sequence,target mRNA inhibition (1 µM) [%],other results
"GCACCGTTTTGGGCTA (sugars k3 d10 k3, PS)",74,target mRNA inhibition (0.02 µM): 36%; target mRNA inhibition (0.078 µM): 38%; target mRNA inhibition (0.313 µM): 61%; target mRNA inhibition (1.25 µM): 80%; target mRNA inhibition (5 µM): 88%
"GCACCGTTTTGGGCTA (sugars kkdddddddddkekek, PS)",49,–
"GCACTCAGCTGCAGTT (sugars k3 d10 k3, PS)",29,–
"GCAGAAATTCACCTTG (sugars k3 d10 k3, PS)",74,target mRNA inhibition (0.02 µM): 5%; target mRNA inhibition (0.078 µM): 19%; target mRNA inhibition (0.313 µM): 26%; target mRNA inhibition (1.25 µM): 70%; target mRNA inhibition (5 µM): 88%
"GCAGTTATTAGAAGTC (sugars k3 d9 k3 e1, PS)",67,–
"GCAGTTATTAGAAGTC (sugars k3 d10 k3, PS)",76,target mRNA inhibition (0.02 µM): 9%; target mRNA inhibition (0.078 µM): 22%; target mRNA inhibition (0.313 µM): 41%; target mRNA inhibition (1.25 µM): 74%; target mRNA inhibition (5 µM): 84%
"GCATACTTATTAAGTA (sugars k3 d10 k3, PS)",32,–
"GCATCAAGACATTCTA (sugars kkdddddddddkekek, PS)",43,–
"GCATUAATGCCACCCT (sugars k3 d1 m1 d8 k3, PS)",32,–
"GCCAAACTGCTACTGT (sugars k3 d10 k3, PS)",73,target mRNA inhibition (0.02 µM): 1%; target mRNA inhibition (0.078 µM): 13%; target mRNA inhibition (0.313 µM): 41%; target mRNA inhibition (1.25 µM): 63%; target mRNA inhibition (5 µM): 76%
"GCCAAGCTTTGTGTCA (sugars k3 d10 k3, PS)",64,–
"GCCAATTCACATATGT (sugars k3 d10 k3, PS)",34,–
"GCCTAGTTTTCGGCAC (sugars k3 d10 k3, PS)",12,–
"GCCTTGAATAGCAAGC (sugars k3 d9 k3 e1, PS)",38,–
"GCCTTGAATAGCAAGC (sugars k3 d10 k3, PS)",32,–
"GCCTUGAATAGCAAGC (sugars k3 d1 m1 d8 k3, PS)",12,–
"GCGGCAAATTTGCTGG (sugars k3 d10 k3, PS)",0,–
"GCTACTTGAACAGTCT (sugars kkdddddddddkekek, PS)",64,–
"GCTAGACAATTGCAAA (sugars k3 d10 k3, PS)",77,–
"GCTAGTAATTGCATCT (sugars k3 d10 k3, PS)",47,–
"GCTAGTGCCAAACCAA (sugars k3 d9 k3 e1, PS)",70,–
"GCTATAACTGGAAGGA (sugars k3 d10 k3, PS)",58,–
"GCTCCATAATAATAGC (sugars k3 d1 m1 d8 k3, PS)",16,–

Sequence,target mRNA inhibition (1 µM) [%],other results
"GCTCTAATGTTTCTTG (sugars k3 d10 k3, PS)",62,–
"GCTCTATTGGGCCAGG (sugars k3 d10 k3, PS)",47,–
"GCTGAGTGGATTACAT (sugars k3 d10 k3, PS)",44,–
"GCTGCTAGTGCCAAAC (sugars k3 d9 k3 e1, PS)",62,–
"GCTGGAACAATATGGG (sugars k3 d10 k3, PS)",36,–
"GCTGTAAGAGTCAGTA (sugars k3 d9 k3 e1, PS)",52,–
"GCTGTAAGAGTCAGTA (sugars kkdddddddddkekek, PS)",42,–
"GCTTAGTTCTTAATTA (sugars k3 d10 k3, PS)",28,–
"GCTTTGAAGACAATAC (sugars k3 d10 k3, PS)",42,–
"GCTTUTGTCCACCTTT (sugars k3 d1 m1 d8 k3, PS)",75,target mRNA inhibition (0.02 µM): 0%; target mRNA inhibition (0.078 µM): 0%; target mRNA inhibition (0.313 µM): 13%; target mRNA inhibition (1.25 µM): 70%; target mRNA inhibition (5 µM): 89%
"GGAAAGGATATTTGGC (sugars k3 d10 k3, PS)",58,–
"GGAAATTCACAATCTA (sugars k3 d10 k3, PS)",22,–
"GGAATGCTACTTGAAC (sugars kkdddddddddkekek, PS)",49,–
"GGACCAATATAATCCA (sugars k3 d10 k3, PS)",20,–
"GGACCAGGGAATTTAT (sugars k3 d10 k3, PS)",55,–
"GGACTTCAGAGTTATA (sugars k3 d10 k3, PS)",36,–
"GGAGCTAGATACTCAA (sugars k3 d10 k3, PS)",42,–
"GGAGGAGGTACTGTCT (sugars k3 d10 k3, PS)",44,–
"GGAGTACTTCACAATT (sugars k3 d10 k3, PS)",79,target mRNA inhibition (0.02 µM): 20%; target mRNA inhibition (0.078 µM): 25%; target mRNA inhibition (0.313 µM): 42%; target mRNA inhibition (1.25 µM): 75%; target mRNA inhibition (5 µM): 87%
"GGAGTAGATGATGGTG (sugars k3 d10 k3, PS)",31,–
"GGAGTCGGATTATTTT (sugars k3 d10 k3, PS)",41,–
"GGATATGTCATCTAAA (sugars k3 d10 k3, PS)",68,–
"GGATGTTAGGACCCAG (sugars k3 d10 k3, PS)",81,target mRNA inhibition (0.02 µM): 4%; target mRNA inhibition (0.078 µM): 18%; target mRNA inhibition (0.313 µM): 69%; target mRNA inhibition (1.25 µM): 89%; target mRNA inhibition (5 µM): 93%

Sequence,target mRNA inhibition (1 µM) [%],other results
"GGATTTCTAGGATGAT (sugars k3 d10 k3, PS)",58,–
"GGCCGCACACTGAAGC (sugars k3 d10 k3, PS)",9,–
"GGCCTGAAGTTCTGAT (sugars k3 d10 k3, PS)",0,–
"GGCTACAGATTGGAAT (sugars kkdddddddddkekek, PS)",73,target mRNA inhibition (0.02 µM): 16%; target mRNA inhibition (0.078 µM): 0%; target mRNA inhibition (0.313 µM): 27%; target mRNA inhibition (1.25 µM): 62%; target mRNA inhibition (5 µM): 83%
"GGCTAGGATTAATCAT (sugars k3 d10 k3, PS)",44,–
"GGCTATAGTAATTGCT (sugars k3 d10 k3, PS)",13,–
"GGCTGTAAGAGTCAGT (sugars k3 d10 k3, PS)",88,target mRNA inhibition (0.02 µM): 0%; target mRNA inhibition (0.078 µM): 0%; target mRNA inhibition (0.313 µM): 0%; target mRNA inhibition (1.25 µM): 51%; target mRNA inhibition (5 µM): 42%
"GGCTTTATCATTCTAA (sugars k3 d10 k3, PS)",20,–
"GGGAAATTGTTGCTGT (sugars k3 d10 k3, PS)",42,–
"GGGAATGCTCATATTA (sugars k3 d10 k3, PS)",18,–
"GGGACCAATATAATCC (sugars k3 d10 k3, PS)",31,–
"GGGAGGTAGCTTTTGT (sugars k3 d10 k3, PS)",10,–
"GGGATAAACTGTTCTT (sugars k3 d10 k3, PS)",47,–
"GGGCTAGAACTTAAAA (sugars k3 d10 k3, PS)",35,–
"GGGTGGTAACGGTGAT (sugars k3 d10 k3, PS)",46,–
"GGTCACCTTTCATAAT (sugars k3 d10 k3, PS)",57,–
"GGTCACCTTTCATAAT (sugars kkdddddddddkekek, PS)",52,–
"GGTGAACCCAGTATTC (sugars k3 d10 k3, PS)",7,–
"GGTGGTAACGGTGATC (sugars kkdddddddddkekek, PS)",39,–
"GGTTGAGATAAAGCTG (sugars k3 d10 k3, PS)",76,target mRNA inhibition (0.02 µM): 0%; target mRNA inhibition (0.078 µM): 0%; target mRNA inhibition (0.313 µM): 37%; target mRNA inhibition (1.25 µM): 65%; target mRNA inhibition (5 µM): 86%
